Results taken from the supplement of paper PMC11451515.

System: NOMO1
Assay: cell viability relative to DMSO control; higher = less cytotoxic
Conditions: 48 h
Method in brief: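 Viability, reported as a per-plate percentage of DMSO wells with cell-free wells as background, came from CellTiter-Glo One luminescence. Reading took place after 48 h at 37°C. Before that, NOMO1 or SEM (500 cells/well) or P12-Ichikawa (1000 cells/well) leukemia cells, adapted for at least four passages in each medium, were seeded in 1536-well plates (5 μl) and pin-dosed with library compounds in DMSO, 47 μM to 0.79 nM over 11 threefold points.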

[1] = HPLM + 10% dialyzed FBS, 0.000781 µM
[2] = HPLM + 10% dialyzed FBS, 0.00234 µM
[3] = HPLM + 10% dialyzed FBS, 0.00702 µM
[4] = HPLM + 10% dialyzed FBS, 0.0211 µM
[5] = HPLM + 10% dialyzed FBS, 0.0632 µM
[6] = HPLM + 10% dialyzed FBS, 0.19 µM
[7] = HPLM + 10% dialyzed FBS, 0.569 µM
[8] = HPLM + 10% dialyzed FBS, 1.71 µM
[9] = HPLM + 10% dialyzed FBS, 5.12 µM
[10] = HPLM + 10% dialyzed FBS, 15.4 µM
[11] = HPLM + 10% dialyzed FBS, 46.1 µM
[12] = RPMI 5 mM glucose + 10% FBS, 0.000781 µM
[13] = RPMI 5 mM glucose + 10% FBS, 0.00234 µM
[14] = RPMI 5 mM glucose + 10% FBS, 0.00702 µM
[15] = RPMI 5 mM glucose + 10% FBS, 0.0211 µM
[16] = RPMI 5 mM glucose + 10% FBS, 0.0632 µM
[17] = RPMI 5 mM glucose + 10% FBS, 0.19 µM
[18] = RPMI 5 mM glucose + 10% FBS, 0.569 µM
[19] = RPMI 5 mM glucose + 10% FBS, 1.71 µM
[20] = RPMI 5 mM glucose + 10% FBS, 5.12 µM
[21] = RPMI 5 mM glucose + 10% FBS, 15.4 µM
[22] = RPMI 5 mM glucose + 10% FBS, 46.1 µM
[23] = RPMI 5 mM glucose + 10% dialyzed FBS, 0.000781 µM
[24] = RPMI 5 mM glucose + 10% dialyzed FBS, 0.00234 µM
[25] = RPMI 5 mM glucose + 10% dialyzed FBS, 0.00702 µM
[26] = RPMI 5 mM glucose + 10% dialyzed FBS, 0.0211 µM
[27] = RPMI 5 mM glucose + 10% dialyzed FBS, 0.0632 µM
[28] = RPMI 5 mM glucose + 10% dialyzed FBS, 0.19 µM
[29] = RPMI 5 mM glucose + 10% dialyzed FBS, 0.569 µM
[30] = RPMI 5 mM glucose + 10% dialyzed FBS, 1.71 µM
[31] = RPMI 5 mM glucose + 10% dialyzed FBS, 5.12 µM
[32] = RPMI 5 mM glucose + 10% dialyzed FBS, 15.4 µM
[33] = RPMI 5 mM glucose + 10% dialyzed FBS, 46.1 µM

Compound	cell viability [1]	cell viability [2]	cell viability [3]	cell viability [4]	cell viability [5]	cell viability [6]	cell viability [7]	cell viability [8]	cell viability [9]	cell viability [10]	cell viability [11]	cell viability [12]	cell viability [13]	cell viability [14]	cell viability [15]	cell viability [16]	cell viability [17]	cell viability [18]	cell viability [19]	cell viability [20]	cell viability [21]	cell viability [22]	cell viability [23]	cell viability [24]	cell viability [25]	cell viability [26]	cell viability [27]	cell viability [28]	cell viability [29]	cell viability [30]	cell viability [31]	cell viability [32]	cell viability [33]
NC(CO)(CO)CCc1ccc(Sc2cccc(OCc3ccccc3)c2)cc1Cl	108%	107%	118%	118%	124%	129%	111%	121%	63.1%	38.6%	8.35%	104%	103%	116%	122%	107%	107%	117%	115%	120%	40.1%	5.44%	93.5%	103%	99.1%	107%	114%	109%	105%	115%	113%	104%	5.71%
C[C@@H]1COCCN1C\2=C\C(=O)N\3CC[C@H](N(CC4=CN=CC(=C4)Cl)C3=N2)C(F)(F)F	90.9%	95.9%	102%	105%	124%	130%	112%	100%	103%	45.4%	29.4%	98%	87.7%	95.1%	93.8%	95.4%	98.5%	92.7%	94.2%	96.9%	57.4%	26%	87.7%	89.9%	91.1%	98.4%	108%	113%	95.1%	89.5%	67.7%	37%	22%
CC(=O)N1CCN(c2ccc(OCc3nn(C)c(C)c3-c3cccc4c(CCCOc5cccc6ccccc56)c(C(=O)O)n(Cc5cccnc5)c34)cc2)CC1	107%	130%	119%	117%	138%	128%	126%	85.2%	32%	23.9%	22.7%	110%	125%	120%	124%	130%	129%	127%	67%	22.8%	19.6%	16%	118%	125%	130%	131%	136%	139%	129%	123%	24.9%	19.5%	21.2%
OCc1ccc(-c2nn(Cc3ccccc3)c3ccccc23)o1	120%	101%	120%	127%	108%	101%	111%	64.6%	91.6%	38.5%	9%	104%	111%	104%	102%	95.4%	96.4%	96.8%	93.4%	98.6%	38%	8.67%	110%	105%	105%	113%	107%	105%	107%	89.6%	81.6%	42.4%	7.56%
CC(C)Nc1cc(C(F)(F)F)cc2nc(NC(=O)c3cccnc3)nn12	120%	116%	118%	126%	123%	101%	119%	85.2%	80.8%	71.6%	54.2%	106%	107%	115%	106%	98.1%	118%	116%	52.6%	45.9%	56.5%	64.8%	108%	109%	115%	119%	125%	103%	98.2%	55%	50.4%	56.9%	62.9%
CC(C)n1nc(-c2ccc3oc(N)nc3c2)c2c(N)ncnc21	96.9%	75.9%	65.1%	62.6%	55.3%	53.6%	52.2%	55%	50.6%	33.1%	26.3%	93.1%	96.5%	83.3%	77.6%	66.6%	59.2%	56.8%	50.3%	49.9%	38.7%	34.4%	83.4%	74.5%	67.2%	58.5%	59.6%	52.6%	51.7%	48.6%	43.2%	35.7%	31.3%
CC(=O)CC(C1=CC=CC=C1)C/2=C(O)/C3=CC=CC=C3OC2=O (stereo unspecified)	96.8%	126%	111%	129%	124%	132%	132%	128%	147%	143%	155%	–	–	–	–	–	–	–	–	–	–	–	109%	116%	128%	123%	120%	126%	127%	121%	124%	127%	129%
CCN(CC)C(=S)SSC(=S)N(CC)CC	97.9%	112%	135%	130%	131%	121%	147%	132%	5.58%	46.8%	2.75%	104%	112%	119%	120%	129%	110%	127%	127%	4.7%	12.4%	3.34%	114%	120%	131%	122%	123%	128%	131%	120%	6.51%	5.46%	2.56%
C[C@@H](O)[C@@H]1[C@H]2[C@@H](C)\C(=C(/N2C1=O)C(=O)OCOC(=O)C(C)(C)C)SC3CN(C3)/C4=N/CCS4	93.2%	93.2%	103%	111%	110%	113%	105%	102%	68.2%	60.8%	38.4%	92.3%	102%	113%	111%	101%	112%	101%	110%	109%	116%	104%	87.8%	106%	103%	119%	111%	126%	115%	120%	100%	84.5%	77.7%
O=C(/C=C/c1cccc([S+](=O)([O-])Nc2ccccc2)c1)NO	143%	112%	121%	120%	154%	132%	139%	129%	88%	12.2%	9.85%	–	–	–	–	–	–	–	–	–	–	–	–	–	–	–	–	–	–	–	–	–	–
CCC1(c2ccc(N)cc2)CCC(=O)NC1=O (stereo unspecified)	115%	107%	125%	124%	122%	119%	115%	110%	116%	93.9%	97.6%	106%	107%	116%	116%	102%	117%	103%	104%	123%	110%	99.7%	114%	111%	116%	117%	118%	104%	107%	123%	102%	111%	111%
O=C(/C=C/c1c(C(=O)[O-])[nH]c2cc(Cl)cc(Cl)c12)Nc1ccccc1	112%	115%	116%	116%	99.9%	117%	118%	110%	113%	112%	108%	90.5%	99%	99.5%	95.1%	101%	116%	107%	107%	107%	124%	107%	110%	109%	114%	126%	126%	120%	115%	120%	111%	127%	118%
C\C1=C\N([C@H]2C[C@H](N=[N+]=[N-])[C@@H](CO)O2)C(=O)NC1=O	94.1%	109%	99.4%	105%	111%	120%	109%	61%	29.7%	19.8%	25.7%	88.2%	109%	105%	106%	96.7%	97.5%	106%	29.3%	15.1%	14.3%	10.2%	107%	110%	109%	110%	105%	103%	113%	68.6%	20.8%	19.6%	18.9%
Oc1ccc(/C=C/c2cc(O)cc(O)c2)cc1	108%	112%	115%	111%	107%	114%	92.4%	117%	97.5%	50.1%	10.4%	109%	98.8%	111%	105%	98%	102%	99.8%	107%	95.3%	103%	15.1%	89.7%	106%	98.1%	104%	103%	105%	99.2%	97.4%	102%	83.4%	18.4%
C[C@@]12O[C@@H](C[C@]1(O)CO)n1c3ccccc3c3c4c(c5c6ccccc6n2c5c31)CNC4=O	–	–	–	–	–	–	–	–	–	–	–	106%	128%	102%	121%	119%	96.3%	77.3%	42.3%	39.9%	24.3%	5.7%	103%	118%	122%	138%	110%	99.6%	76.4%	50%	31.8%	27.4%	4.47%
O=C1C[C@@H](c2ccc(O)cc2)Oc2cc(O)cc(O)c21	–	–	–	–	–	–	–	–	–	–	–	128%	104%	104%	100%	126%	124%	116%	107%	127%	106%	111%	111%	108%	117%	110%	120%	110%	119%	108%	86.2%	109%	97.9%
NC1=NC=C(C=C1)C2=CC=C3N=CC\4=C(N(C(=O)\C=C4)C5=CC(=CC=C5)C(F)(F)F)C3=C2	80.5%	76.8%	62.6%	57.6%	41.2%	27.1%	24.1%	24.3%	21.4%	18.6%	16.5%	86.1%	83.9%	75.3%	74.4%	55%	29.7%	30.3%	23.2%	15.3%	11.7%	13.2%	68.9%	72.8%	74.1%	61.4%	46%	28.5%	29.5%	22.9%	17.2%	13.5%	17.1%
